Measured values taken from article PMC8309005, “Novel Non-Congeneric Derivatives of the Choline Kinase Alpha Inhibitor ICL-CCIC-0019” (Pharmaceutics, 2021).

What was measured:
[1] = tested on: CHKA; design: method as in ref 18, 25 (HC-3), 20, 21 (MN58B), 23 (RSM-932A); settings: CHKA inhibitors of Figure 1; 25 (HC-3), 20, 21 (MN58B), 23 (RSM-932A); cited from earlier work
[2] = tested on: SKBR3; design: method as in PMID 22278967, PMID 9393874; settings: cited from earlier work
[3] = tested on: NIH3T3; design: method as in PMID 22278967, PMID 9393874; settings: cited from earlier work
[4] = biological target: PI3K a (Homo sapiens, UniProt P42336); experiment: Lipid kinase screening (ADP-Glo), PI3K a; format: biochemical
Procedure: (§1) The lipid kinase screening for ICL-CCIC-0019, CK14, CK145 (5), CK146 (4) and CK147 (8) (testing concentration for all compounds: 10 μM) was performed by MRC PPU International Centre for Kinase Profiling (Dundee, UK). The lipid kinase screening panel includes 15 human recombinant lipid kinases and the tests used Promega ADP Glo^TM High Throughput Assay kit (Promega, Southampton, UK). For each assay, reference compounds were used as quality control. Finally, mean percentage activity inhibited by compounds and standard deviation for all the repeats were calculated.

[5] = biological target: PI3K b (Homo sapiens, UniProt P42338); experiment: Lipid kinase screening (ADP-Glo), PI3K b; format: biochemical
Procedure: as §1

[6] = biological target: PI3K g (Homo sapiens, UniProt P48736); experiment: Lipid kinase screening (ADP-Glo), PI3K g; format: biochemical
Procedure: as §1

[7] = biological target: PI3Ka E545K + p85 (Homo sapiens, UniProt P42336, E545K); experiment: Lipid kinase screening (ADP-Glo), PI3Ka E545K + p85; format: biochemical
Procedure: as §1

[8] = tested on: PI3Ka E524K + p85; experiment: Lipid kinase screening (ADP-Glo), PI3Ka E524K + p85; format: biochemical, human; settings: 10 μM
Procedure: as §1

[9] = biological target: T1, PIP5K2A (Homo sapiens, UniProt P48426); experiment: Lipid kinase screening (ADP-Glo), PIP5K2A; format: biochemical
T1 sequence (P48426 1-406): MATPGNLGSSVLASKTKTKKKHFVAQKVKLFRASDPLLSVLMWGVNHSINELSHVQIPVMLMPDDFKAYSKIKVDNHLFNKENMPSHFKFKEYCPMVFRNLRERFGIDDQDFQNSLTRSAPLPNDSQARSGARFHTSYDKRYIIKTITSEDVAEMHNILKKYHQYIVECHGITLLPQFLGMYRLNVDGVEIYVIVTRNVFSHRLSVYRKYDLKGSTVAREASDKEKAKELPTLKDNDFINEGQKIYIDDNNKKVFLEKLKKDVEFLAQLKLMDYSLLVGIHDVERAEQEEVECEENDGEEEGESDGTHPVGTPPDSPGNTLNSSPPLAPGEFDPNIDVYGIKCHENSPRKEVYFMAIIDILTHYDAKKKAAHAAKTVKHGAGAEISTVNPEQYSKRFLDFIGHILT
Procedure: as §1

[10] = biological target: SPHK1 (Homo sapiens, UniProt Q9NYA1); experiment: Lipid kinase screening (ADP-Glo), SPHK1; format: biochemical
Procedure: as §1

[11] = biological target: T2, SPHK2 (Homo sapiens, UniProt Q9NRA0); experiment: Lipid kinase screening (ADP-Glo), SPHK2; format: biochemical
T2 sequence (Q9NRA0 1-654): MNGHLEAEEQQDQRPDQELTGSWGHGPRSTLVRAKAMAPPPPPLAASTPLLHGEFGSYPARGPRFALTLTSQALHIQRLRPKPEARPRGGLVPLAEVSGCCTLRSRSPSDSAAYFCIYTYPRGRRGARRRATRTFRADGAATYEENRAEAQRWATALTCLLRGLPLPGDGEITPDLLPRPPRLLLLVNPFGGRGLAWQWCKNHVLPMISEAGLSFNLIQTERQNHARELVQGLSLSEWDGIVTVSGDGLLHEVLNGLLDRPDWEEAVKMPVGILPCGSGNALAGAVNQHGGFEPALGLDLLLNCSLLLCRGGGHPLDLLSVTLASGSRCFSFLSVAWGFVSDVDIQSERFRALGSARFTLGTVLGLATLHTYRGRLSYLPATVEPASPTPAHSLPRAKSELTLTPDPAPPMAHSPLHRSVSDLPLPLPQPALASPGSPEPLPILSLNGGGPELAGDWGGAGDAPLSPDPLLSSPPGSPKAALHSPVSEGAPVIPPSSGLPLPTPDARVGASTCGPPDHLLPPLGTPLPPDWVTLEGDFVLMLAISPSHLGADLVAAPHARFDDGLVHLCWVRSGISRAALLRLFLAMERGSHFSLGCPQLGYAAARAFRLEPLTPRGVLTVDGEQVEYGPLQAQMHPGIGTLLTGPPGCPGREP
Procedure: as §1

[12] = biological target: CHK a (CHKA) (Homo sapiens, UniProt P35790); experiment: Lipid kinase screening (ADP-Glo), CHKA; format: biochemical
Procedure: as §1

[13] = biological target: DGK b (Homo sapiens, UniProt Q9Y6T7); experiment: Lipid kinase screening (ADP-Glo), DGK b; format: biochemical
Procedure: as §1

[14] = biological target: phosphatidylinositol 4-kinase beta (PIK4CB) (Homo sapiens, UniProt Q9UBF8); experiment: Lipid kinase screening (ADP-Glo), PIK4CB; format: biochemical
Procedure: as §1

[15] = biological target: DGK g (Homo sapiens, UniProt P49619); experiment: Lipid kinase screening (ADP-Glo), DGK g; format: biochemical
Procedure: as §1

[16] = biological target: DGK z (Homo sapiens, UniProt Q13574); experiment: Lipid kinase screening (ADP-Glo), DGK z; format: biochemical
Procedure: as §1

[17] = biological target: PI4K2a (Homo sapiens, UniProt Q9BTU6); experiment: Lipid kinase screening (ADP-Glo), PI4K2a; format: biochemical
Procedure: as §1

[18] = biological target: CHK b (CHKB) (Homo sapiens, UniProt Q9Y259); experiment: Lipid kinase screening (ADP-Glo), CHKB; format: biochemical
Procedure: as §1

[19] = Kinetic solubility assay; format: physicochemical; settings: 0.1 M PBS (2% DMSO), aqueous buffer, kinetic from dmso stock; read-out: Kinetic Solubility: Solubility
Procedure: (§2) The ADME study for ICL-CCIC-0019, CK14, CK145 (5), CK146 (4) and CK147 (8) was performed by Charles River Drug Discovery Services (Essex, UK).
(§3) The predicted in vitro pharmacokinetic characteristics of compounds were evaluated by four ADME assays, namely kinetic solubility assay, metabolic stability assay using human liver microsome S9, permeability and efflux study using the Caco-2 cell line, and matrix stability assay using fasted state simulated gastric fluid (FaSSGF). All tested CHKA inhibitors were highly soluble (>150 μM) in 0.1 M PBS (2% DMSO) (Table 1). […] The in vivo clearance was calculated to predict the actual clearance in humans by scaling the clearance values, which takes into account liver weight, microsomes per liver and liver blood flow. […] In Caco-2 cell permeability assay, drug permeability was investigated and presented as apparent permeability coefficients (Papp) in A to B (A-B, apical to basolateral direction) and B to A (B-A, basolateral to apical direction).

[20] = Human microsomal metabolic stability assay; format: in vitro ADME
Procedure: as §2, §3

[21] = Caco-2 permeability and efflux study; format: in vitro ADME, human; settings: human
Procedure: as §2, §3

[22] = Matrix stability assay in fasted state simulated gastric fluid (FaSSGF); format: in vitro ADME
Procedure: as §2, §3

[23] = tested on: [18F]D4-FCH uptake in C4-2B cells; experiment: [18F]D4-FCH uptake in vitro study, C4-2B; format: cell-based; settings: Homo sapiens
Procedure: HCT-116 and C4-2B cells were seeded at a density of 5 × 10^5 cells per well into 6-well plates and incubated overnight. Cells were treated with 1 or 10 µM CHKA inhibitors (CK14, CK145, CK146 and CK147) for 1 h and pulsed with [^18F]D4-FCH (740 kBq) in presence of inhibitors in 1 mL for an additional hour at 37 °C. Cells were washed with ice-cold PBS three times and lysed in 1 mL RIPA buffer. The radioactivity of 800 µL lysate from each well was counted on a gamma counter (Perkin Elmer, Beaconsfield, UK) and normalized to protein content as determined by BCA assay.

[24] = tested on: Δ49N CHKA2 (recombinant CHKA2); settings: read-out: IC50 against recombinant CHKA2; cited from earlier work
[25] = tested on: HCT-116; settings: cited from earlier work
[26] = tested on: A549; settings: cited from earlier work

PI3K a, sequence (P42336 whole entry): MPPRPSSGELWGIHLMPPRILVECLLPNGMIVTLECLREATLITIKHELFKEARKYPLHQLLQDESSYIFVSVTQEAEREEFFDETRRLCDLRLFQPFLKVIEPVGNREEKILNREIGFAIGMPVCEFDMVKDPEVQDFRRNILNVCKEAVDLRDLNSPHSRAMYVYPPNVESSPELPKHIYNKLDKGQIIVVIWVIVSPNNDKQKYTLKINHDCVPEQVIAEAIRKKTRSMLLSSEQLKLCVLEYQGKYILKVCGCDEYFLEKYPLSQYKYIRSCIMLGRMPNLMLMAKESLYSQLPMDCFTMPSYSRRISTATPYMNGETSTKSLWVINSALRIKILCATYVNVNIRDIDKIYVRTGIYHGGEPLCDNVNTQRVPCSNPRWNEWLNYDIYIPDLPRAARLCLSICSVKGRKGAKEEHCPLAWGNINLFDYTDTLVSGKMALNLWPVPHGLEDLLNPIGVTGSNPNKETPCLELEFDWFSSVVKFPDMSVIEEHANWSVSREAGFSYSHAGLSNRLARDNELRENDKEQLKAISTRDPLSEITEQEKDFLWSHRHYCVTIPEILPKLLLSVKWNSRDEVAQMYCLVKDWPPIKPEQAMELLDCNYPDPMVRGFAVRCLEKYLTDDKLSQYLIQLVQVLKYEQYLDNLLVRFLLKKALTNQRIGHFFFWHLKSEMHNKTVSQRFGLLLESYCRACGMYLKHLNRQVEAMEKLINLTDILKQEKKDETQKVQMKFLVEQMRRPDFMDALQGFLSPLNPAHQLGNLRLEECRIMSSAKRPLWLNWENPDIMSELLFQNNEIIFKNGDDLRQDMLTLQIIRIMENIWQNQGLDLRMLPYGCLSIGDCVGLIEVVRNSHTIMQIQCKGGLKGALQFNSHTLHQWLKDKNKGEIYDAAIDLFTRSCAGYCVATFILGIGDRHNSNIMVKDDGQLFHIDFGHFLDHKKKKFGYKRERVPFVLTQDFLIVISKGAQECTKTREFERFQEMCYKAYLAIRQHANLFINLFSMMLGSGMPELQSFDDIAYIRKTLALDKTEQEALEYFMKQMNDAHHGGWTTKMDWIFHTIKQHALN
PI3K a, sequence (P27986 whole entry partner): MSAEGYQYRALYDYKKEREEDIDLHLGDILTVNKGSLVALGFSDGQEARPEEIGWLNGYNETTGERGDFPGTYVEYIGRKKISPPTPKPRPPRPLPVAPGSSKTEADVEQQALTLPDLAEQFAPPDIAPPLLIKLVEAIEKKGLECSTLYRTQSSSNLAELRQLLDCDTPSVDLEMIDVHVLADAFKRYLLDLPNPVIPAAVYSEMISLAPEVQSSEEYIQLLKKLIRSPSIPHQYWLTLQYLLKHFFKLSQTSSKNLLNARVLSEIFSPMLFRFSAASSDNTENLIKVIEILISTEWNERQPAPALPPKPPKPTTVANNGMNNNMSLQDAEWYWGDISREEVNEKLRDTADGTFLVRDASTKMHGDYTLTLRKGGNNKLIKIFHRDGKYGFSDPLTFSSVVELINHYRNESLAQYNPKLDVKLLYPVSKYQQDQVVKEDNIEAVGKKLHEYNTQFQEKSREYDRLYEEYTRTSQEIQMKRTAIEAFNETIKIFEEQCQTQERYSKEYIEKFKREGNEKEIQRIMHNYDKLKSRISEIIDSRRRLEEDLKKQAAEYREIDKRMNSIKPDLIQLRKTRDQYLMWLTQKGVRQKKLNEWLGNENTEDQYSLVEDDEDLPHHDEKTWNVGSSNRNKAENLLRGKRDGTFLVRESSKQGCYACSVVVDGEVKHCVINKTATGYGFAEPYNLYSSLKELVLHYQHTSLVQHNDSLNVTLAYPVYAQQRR
PI3Ka E545K + p85, sequence (P42336 whole entry E545K): as the sequence (P42336 whole entry) above, with E545K counted along it
PI3Ka E545K + p85, sequence (P27986 whole entry partner): as the sequence (P27986 whole entry partner) above
DGK g, sequence (P49619 whole entry): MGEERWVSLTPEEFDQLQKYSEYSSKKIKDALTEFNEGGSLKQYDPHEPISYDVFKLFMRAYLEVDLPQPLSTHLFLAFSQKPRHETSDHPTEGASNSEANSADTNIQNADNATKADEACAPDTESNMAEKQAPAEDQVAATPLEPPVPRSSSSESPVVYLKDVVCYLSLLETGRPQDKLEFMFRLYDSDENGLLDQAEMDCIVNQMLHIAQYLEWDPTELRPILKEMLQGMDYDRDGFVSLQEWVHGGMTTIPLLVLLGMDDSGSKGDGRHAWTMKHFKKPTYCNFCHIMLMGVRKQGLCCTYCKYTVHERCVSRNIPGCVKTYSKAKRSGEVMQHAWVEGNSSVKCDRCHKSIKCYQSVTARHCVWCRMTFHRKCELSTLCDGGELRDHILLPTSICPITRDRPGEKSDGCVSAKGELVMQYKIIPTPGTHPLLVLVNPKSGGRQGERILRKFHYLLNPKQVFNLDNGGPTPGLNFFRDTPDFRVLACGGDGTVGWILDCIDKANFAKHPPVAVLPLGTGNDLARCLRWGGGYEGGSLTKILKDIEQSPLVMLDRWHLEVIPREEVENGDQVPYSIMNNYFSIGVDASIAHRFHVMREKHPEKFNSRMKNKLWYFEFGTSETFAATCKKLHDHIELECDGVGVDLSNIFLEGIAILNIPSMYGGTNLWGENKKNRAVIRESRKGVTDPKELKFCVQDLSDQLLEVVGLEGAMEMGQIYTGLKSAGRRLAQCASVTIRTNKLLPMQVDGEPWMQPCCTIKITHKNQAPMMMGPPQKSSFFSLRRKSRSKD
PI3K b, sequence (P42338 whole entry): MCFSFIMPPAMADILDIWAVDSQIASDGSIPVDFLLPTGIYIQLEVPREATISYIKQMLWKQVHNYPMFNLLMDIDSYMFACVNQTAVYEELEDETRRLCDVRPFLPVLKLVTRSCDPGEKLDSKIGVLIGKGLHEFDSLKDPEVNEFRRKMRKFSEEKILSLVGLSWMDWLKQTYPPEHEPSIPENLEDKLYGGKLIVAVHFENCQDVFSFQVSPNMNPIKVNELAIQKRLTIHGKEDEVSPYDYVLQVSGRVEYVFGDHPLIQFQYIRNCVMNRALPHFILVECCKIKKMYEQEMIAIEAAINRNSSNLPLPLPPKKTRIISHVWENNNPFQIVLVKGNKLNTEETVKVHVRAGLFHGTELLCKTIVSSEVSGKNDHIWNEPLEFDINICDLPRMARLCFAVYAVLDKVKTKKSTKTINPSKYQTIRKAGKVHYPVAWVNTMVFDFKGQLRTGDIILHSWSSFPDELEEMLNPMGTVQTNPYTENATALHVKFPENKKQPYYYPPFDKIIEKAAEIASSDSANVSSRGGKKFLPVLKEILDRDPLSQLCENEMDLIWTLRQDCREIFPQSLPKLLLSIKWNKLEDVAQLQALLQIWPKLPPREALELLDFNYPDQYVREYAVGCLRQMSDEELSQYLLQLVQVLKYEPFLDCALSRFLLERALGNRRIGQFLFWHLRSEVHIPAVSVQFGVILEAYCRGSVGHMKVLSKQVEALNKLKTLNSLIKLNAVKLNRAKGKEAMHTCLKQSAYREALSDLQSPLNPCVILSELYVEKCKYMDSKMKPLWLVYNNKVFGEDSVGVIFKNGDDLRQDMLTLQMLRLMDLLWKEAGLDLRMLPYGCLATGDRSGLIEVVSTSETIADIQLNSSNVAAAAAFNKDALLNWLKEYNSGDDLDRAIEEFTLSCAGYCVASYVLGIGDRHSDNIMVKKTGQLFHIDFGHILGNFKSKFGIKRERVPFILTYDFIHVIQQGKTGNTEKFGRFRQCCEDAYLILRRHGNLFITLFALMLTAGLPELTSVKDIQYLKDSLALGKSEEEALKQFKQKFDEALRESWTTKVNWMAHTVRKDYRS
PI3K b, sequence (P27986 whole entry partner): as the sequence (P27986 whole entry partner) above
CHK a (CHKA), sequence (P35790 whole entry): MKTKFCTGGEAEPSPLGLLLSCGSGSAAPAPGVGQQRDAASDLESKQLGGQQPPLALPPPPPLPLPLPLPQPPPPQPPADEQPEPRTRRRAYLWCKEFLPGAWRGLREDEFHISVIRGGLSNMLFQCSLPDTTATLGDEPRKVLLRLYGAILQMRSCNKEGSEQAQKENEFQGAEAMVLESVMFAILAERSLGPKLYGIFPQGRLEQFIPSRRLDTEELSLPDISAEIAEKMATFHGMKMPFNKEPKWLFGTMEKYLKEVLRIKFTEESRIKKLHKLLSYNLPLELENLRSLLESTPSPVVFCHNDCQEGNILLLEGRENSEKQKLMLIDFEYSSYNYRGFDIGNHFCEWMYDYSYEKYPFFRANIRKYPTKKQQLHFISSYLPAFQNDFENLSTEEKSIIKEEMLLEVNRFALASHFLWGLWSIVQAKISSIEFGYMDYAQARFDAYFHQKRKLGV
phosphatidylinositol 4-kinase beta (PIK4CB), sequence (Q9UBF8 whole entry): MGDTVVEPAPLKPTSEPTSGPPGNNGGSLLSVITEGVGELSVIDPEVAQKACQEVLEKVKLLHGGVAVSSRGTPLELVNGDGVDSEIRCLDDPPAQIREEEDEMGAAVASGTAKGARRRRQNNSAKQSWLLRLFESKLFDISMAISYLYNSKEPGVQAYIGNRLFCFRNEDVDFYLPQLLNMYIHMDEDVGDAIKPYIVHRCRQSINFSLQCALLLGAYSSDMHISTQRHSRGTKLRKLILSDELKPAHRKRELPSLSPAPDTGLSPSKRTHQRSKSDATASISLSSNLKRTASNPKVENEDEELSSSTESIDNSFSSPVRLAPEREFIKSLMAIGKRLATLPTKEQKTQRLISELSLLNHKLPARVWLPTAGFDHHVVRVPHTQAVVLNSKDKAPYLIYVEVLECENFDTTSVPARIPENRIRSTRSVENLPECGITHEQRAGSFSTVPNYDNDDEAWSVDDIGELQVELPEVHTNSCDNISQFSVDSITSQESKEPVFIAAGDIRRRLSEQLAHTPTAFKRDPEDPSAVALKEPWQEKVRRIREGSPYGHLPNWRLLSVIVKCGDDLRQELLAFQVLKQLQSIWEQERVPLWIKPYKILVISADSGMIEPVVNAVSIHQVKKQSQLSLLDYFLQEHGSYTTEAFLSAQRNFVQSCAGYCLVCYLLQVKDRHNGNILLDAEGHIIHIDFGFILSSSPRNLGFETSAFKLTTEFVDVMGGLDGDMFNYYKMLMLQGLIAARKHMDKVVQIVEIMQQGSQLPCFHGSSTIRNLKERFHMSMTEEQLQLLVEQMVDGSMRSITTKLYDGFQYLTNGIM

C[N+]1(C)CCOC(O)(c2ccc(-c3ccc(C4(O)C[N+](C)(C)CCO4)cc3)cc2)C1 (stereo not shown) [HC-3, Hemicholinium-3]
IC50 [1]: 950 nM
GI50 [2]: > 500000 nM
GI50 [3]: 600000 nM

CN(C)c1cc[n+](CCCCCCCCCCCCCC[n+]2ccc(N(C)C)cc2)cc1.[Br-].[Br-] [CK14, reference compound]
inhibition at 10 µM [4]: -1.9%
inhibition at 10 µM [5]: -36.2%
inhibition at 10 µM [6]: 16.4%
inhibition at 10 µM [7]: -15.2%
% Inhibition PI3Ka E524K + p85 [8]: 1.6%
inhibition at 10 µM [9]: -2.7%
inhibition at 10 µM [10]: -10.1%
inhibition at 10 µM [11]: 16%
inhibition at 10 µM [12]: 77%
inhibition at 10 µM [13]: 11.9%
inhibition at 10 µM [14]: -4.1%
inhibition at 10 µM [15]: 12.8%
inhibition at 10 µM [16]: 4.7%
inhibition at 10 µM [17]: -48.8%
inhibition at 10 µM [18]: -33.7%
solubility kinetic [19]: 154 µM
PCT_LBF % (percentage of compound removed compared to liver blood flow) ([20]; human): <45%
Human Microsomal Metabolic Stability: Remaining % ([20]; human liver microsome S9): 101%
microsomal CLint ([20]; human, human liver microsome S9, human liver microsome S9, read-out: Human Microsomal Metabolic Stability: Clint): < 14 µL/min/mg
half-life ([20]; human, human liver microsome S9, human liver microsome S9, read-out: Human Microsomal Metabolic Stability: Half-life): > 1.67 h
Predicted in vivo clearance ([20]; scaled from microsomal clearance (liver weight, microsomes per liver, liver blood flow), human): <10 mL/min/kg
efflux ratio ([21]; Caco-2, read-out: Efflux ratio (Papp B-A/Papp A-B)): > 87
Papp A→B ([21]; Caco-2, apical to basolateral, read-out: Papp A-B): < 0.1 ×10⁻⁶ cm/s
Papp B→A ([21]; Caco-2, basolateral to apical, read-out: Papp B-A): 8.7 ×10⁻⁶ cm/s
Matrix Stability: Remaining % ([22]; FaSSGF): 95%
half-life ([22]; fasted state simulated gastric fluid (FaSSGF), fasted state simulated gastric fluid, pH 1.6, read-out: FaSSGF stability Half-life (converted)): > 10 h
inhibition at 1 µM ([23]; 1 μM, read-out: inhibition of [18F]D4-FCH uptake (mean of CK14, CK145 and CK146)): 46 ± 1%
inhibition at 10 µM ([23]; 10 μM): 93 ± 5%
IC50 [24]: 150 nM
GI50 [25]: 290 nM
GI50 [26]: 330 nM
